Source: publication PMC11263240 (Pharmaceutical Research, 2024)
Where a name gives a salt, the structure may show the parent alone. Read-outs that look alike come from different tables or passages of the source. Blank lines part the entries; values can stand above or below the molecule they belong to.

Columns and labels:
[1] = Noncompartmental plasma pharmacokinetics of ondansetron after IV co-administration with tariquidar; type: in vivo, rat; conditions: ondansetron 10 mg/kg with tariquidar, wild type rats vs wild-type (and Pgp KO) rats
Protocol: The study was conducted under the protocol approved by the Institutional Animal Care and Use Committee at Rutgers University. Wild-type Sprague Dawley rats (males of 10–12 weeks, weighing 300–350 g and females of 12–14 weeks, weighing 250–280 g) were purchased from Horizon Discovery (previously Sage Labs Inc., Boyertown, PA). Animals were housed in a vivarium under controlled temperatures and 12/12 h dark/light cycle with free access to food and water. Right jugular vein was cannulated to allow for accurate intravenous dosing using polyethylene tubing (PE-50, Braintree Scientific, Braintree, MA). The surgery was performed under light isoflurane anesthesia, and after that animals were allowed to recover for 24 h. Intradermal bupivacaine and subcutaneous meloxicam were provided as analgesia. […]
A standard noncompartmental analysis was performed using average plasma concentration–time data (samples obtained from sequential and terminal experiments were combined) in Phoenix WinNonlin version 8.1 (Certara, Princeton, NJ). For plasma, the area under the plasma concentration–time curve from time zero to infinity (AUCplasma), systemic clearance (CL), volume of distribution at steady state (Vd,ss), half-life (t1/2,plasma), and mean residence time (MRT) were calculated. […]

[2] = CNS disposition of ondansetron (brain, spinal cord, CSF) after IV co-administration with tariquidar; type: in vivo, rat; conditions: ondansetron 10 mg/kg + tariquidar 7.5 mg/kg IV
Protocol: (§1) Animals previously used in the plasma pharmacokinetics study were included following a two-week washout period; and additional animals were added to achieve n = 4–6 per time point. […] Groups of rats were sacrificed at 0.16, 0.25, 0.5, 1, 1.5, 2, and 2.5 h under isoflurane anesthesia, and terminal samples were collected including plasma, brain, spinal cord, and cerebrospinal fluid from cisterna magna (CSF) and stored at −20°C.
Agilent 1260 Infinity HPLC equipped with a photodiode array detector was used (Agilent, Santa Clara, CA, USA) in this work. […] Inter-day and intra-day accuracy and precision of the assay were within 15%.
A standard noncompartmental analysis was performed using average plasma concentration–time data (samples obtained from sequential and terminal experiments were combined) in Phoenix WinNonlin version 8.1 (Certara, Princeton, NJ). For plasma, the area under the plasma concentration–time curve from time zero to infinity (AUCplasma), systemic clearance (CL), volume of distribution at steady state (Vd,ss), half-life (t1/2,plasma), and mean residence time (MRT) were calculated. For brain, spinal cord, and CSF the area under the tissue concentration–time curve (AUCtissue) and half-life in tissue (t1/2,tissue) were reported.
However, since the AUC values were based on terminal samples, no statistical comparison among the groups could be performed.

[3] = Semi-physiological pharmacokinetic model of ondansetron systemic and CNS disposition (estimated parameters); type: in vivo, rat; conditions: for k12 Distribution rate constant to peripheral distribution compartment / k13 Distribution rate constant to brain compartment / k14 Distribution rate constant to spinal cord compartment / k15 Distribution rate constant to CSF compartment / k21 Distribution rate constant from peripheral distribution compartment / k31 Distribution rate constant from brain compartment / k35=45 Rate constant for brain/spinal cord and CSF exchange / k41 Distribution rate constant from spinal cord compartment / k51 Distribution rate constant from CSF compartment / k53=54 Rate constant for brain/spinal cord and CSF exchange: model estimate shared across WT, KO, OT; for kPgp,TRQ Rate constant for Pgp-mediated efflux from the CNS for OT animals / kPgp Rate constant for Pgp-mediated efflux from the CNS: model estimate; for kPgp,TRQ Rate constant for Pgp-mediated efflux from the CNS for OT animals: OT group (with tariquidar); for kPgp Rate constant for Pgp-mediated efflux from the CNS: wild type animals, ondansetron alone; for Vd / k el: rat, plasma, brain, spinal cord, CSF, iv, 10 mg/kg
Protocol: Interconnectivity of CNS compartments followed animal physiology (A3 - brain, A4 – spinal cord, A5 - CSF), and previously published CNS model were consulted. The volume of the brain (Vbrain) was fixed to a previously determined value of 1.8 mL which was also in agreement with the brain weight reported before. The volume of the CSF compartment (VCSF) was fixed to 0.25 mL [25]. The volume of the spinal cord (Vspinal) was measured and reported in our previous study and was fixed to 0.6 mL. First order rate constant were used to describe a bidirectional passive permeability between the central disposition compartment (with the volume V1) and various CNS compartments (k13, k31, k14, k41, k15, k51) and distributional terms between CNS compartments (k35, k53, k45, k54). Pgp efflux at the BBB was described using a first-order term (kpgp) and was included for wild type animals only; the term was set to zero in KO rats. The following differential Eqs. (1–5) were used: 1 dA1/dt=k21·A2+k31·A3+k41·A4+k51·A5-kel+k12+k13+k14+k15·A1+kPgp·A3+kPgp·A4 2 dA2/dt=k12·A1-k21·A2 3 dA3/dt=k13·A1+k53·A5-k31+k35+kPgp·A3 4 dA4/dt=k14·A1+k54·A5-k41+k45+kPgp·A4 5 dA5/dt=k15·A1+k35·A3+k45·A4-k51+k53+k54·A5
(§2) The whole dataset included mean ondansetron profiles of OT-M and OT-F in plasma, brain, spinal cord, and CSF obtained in this study and previous data for male and female WT and KO animals. […] Several functions to describe tariquidar-induced Pgp inhibition were considered. […] The final model included a separate term for describing Pgp function in OT groups (kPgp,TRQ). Other parameters were shared across WT, KO, and OT models. All model parameters were estimated. A separate set of parameters was estimated for female cohorts (WT-F, KO-F, OT-F) using the same final model structure.
R (version 3.31) and Rstudio (version 1.2.5001, Boston, MA, USA) with Ubiquity package were used for model development as described before.

[4] = ondansetron alone 10 mg/kg IV, cited from earlier work
[5] = parameters: method as in PMID 15275776; conditions: cited from earlier work
[6] = Tariquidar concentrations in plasma, brain, spinal cord and CSF after IV administration; type: in vivo, rat; conditions: 7.5 mg/kg IV; for half-life: Sprague Dawley, rat, plasma
Protocol: as §1
Agilent 1260 Infinity HPLC equipped with a photodiode array detector was used (Agilent, Santa Clara, CA, USA) in this work.
Data analysis was performed separately for male (OT-M) and female (OT-F) rat groups.

Pgp [7] = assay: Inhibition of Pgp efflux at the CNS by tariquidar in vivo; parameters: species or system rat; conditions: tariquidar 7.5 mg/kg IV, 30 min before ondansetron 10 mg/kg IV, wild type rats
Protocol: as §1, §2

[8] = type: in vivo
Pgp [9] = conditions: 30 min after intravenous injection of tariquidar doses above 6 mg/kg; cited from earlier work
Pgp [10] = conditions: read-out: affinity to Pgp (KD); cited from earlier work
Pgp [11] = conditions: cited from earlier work

plasma ondansetron concentration in comparison to ondansetron administered alone [1]: almost doubled | AUCtissue,0-∞ ([2]; Brain, OT-F: female rats): 19.16 h⋅μg⋅mL^−1 | AUCtissue,0-∞ ([2]; Brain, OT-M: male rats): 22.0 h⋅μg⋅mL^−1 | AUCtissue,0-∞ ([2]; CSF, OT-F: female rats): 1.49 h⋅μg⋅mL^−1 | AUCtissue,0-∞ ([2]; CSF, OT-M: male rats): 1.37 h⋅μg⋅mL^−1 | AUCtissue,0-∞ ([2]; Spinal Cord, OT-F: female rats): 15.6 h⋅μg⋅mL^−1 | AUCtissue,0-∞ ([2]; Spinal Cord, OT-M: male rats): 15.0 h⋅μg⋅mL^−1 | k12 Distribution rate constant to peripheral distribution compartment ([3]; Female): 4.37 h⁻¹ | k13 Distribution rate constant to brain compartment ([3]; Female): 13.0 h⁻¹ | k14 Distribution rate constant to spinal cord compartment ([3]; Female): 3.60 h⁻¹ | k15 Distribution rate constant to CSF compartment ([3]; Female): 0.518 h⁻¹ | k21 Distribution rate constant from peripheral distribution compartment ([3]; Female): 2.32 h⁻¹ | k31 Distribution rate constant from brain compartment ([3]; Female): 25.2 h⁻¹ | k35=45 Rate constant for brain/spinal cord and CSF exchange ([3]; Female): 0.914 h⁻¹ | k41 Distribution rate constant from spinal cord compartment ([3]; Female): 31.5 h⁻¹ | k51 Distribution rate constant from CSF compartment ([3]; Female): 47.3 h⁻¹ | k53=54 Rate constant for brain/spinal cord and CSF exchange ([3]; Female): 79.9 h⁻¹ | kPgp,TRQ Rate constant for Pgp-mediated efflux from the CNS for OT animals ([3]; Female): 0.0001 h⁻¹ | kPgp Rate constant for Pgp-mediated efflux from the CNS ([3]; Female): 101 h⁻¹ | k12 Distribution rate constant to peripheral distribution compartment ([3]; Male): 2.14 h⁻¹ | k13 Distribution rate constant to brain compartment ([3]; Male): 17.6 h⁻¹ | k14 Distribution rate constant to spinal cord compartment ([3]; Male): 9.37 h⁻¹ | k15 Distribution rate constant to CSF compartment ([3]; Male): 0.081 h⁻¹ | k21 Distribution rate constant from peripheral distribution compartment ([3]; Male): 2.62 h⁻¹ | k31 Distribution rate constant from brain compartment ([3]; Male): 39.6 h⁻¹ | k35=45 Rate constant for brain/spinal cord and CSF exchange ([3]; Male): 0.928 h⁻¹ | k41 Distribution rate constant from spinal cord compartment ([3]; Male): 71.0 h⁻¹ | k51 Distribution rate constant from CSF compartment ([3]; Male): 6.84 h⁻¹ | k53=54 Rate constant for brain/spinal cord and CSF exchange ([3]; Male): 66.6 h⁻¹ | kPgp,TRQ Rate constant for Pgp-mediated efflux from the CNS for OT animals ([3]; Male): 0.002 h⁻¹ | kPgp Rate constant for Pgp-mediated efflux from the CNS ([3]; Male): 81.9 h⁻¹ | Vd ([3]; female, Sprague Dawley, with tariquidar (co-administered), read-out: V1,TRQ Central volume of distribution): 0.0113 L | k el ([3]; female, Sprague Dawley, with tariquidar (co-administered), read-out: kel,TRQ Systemic elimination rate constant for OT animals (converted)): 0.000839 s⁻¹ | Vd ([3]; female, read-out: V1 Central volume of distribution): 0.0133 L | k el ([3]; female, read-out: kel Systemic elimination rate constant (converted)): 0.00141 s⁻¹ | Vd ([3]; male, Sprague Dawley, with tariquidar (co-administered), read-out: V1,TRQ Central volume of distribution): 0.0127 L | k el ([3]; male, Sprague Dawley, with tariquidar (co-administered), read-out: kel,TRQ Systemic elimination rate constant for OT animals (converted)): 0.000939 s⁻¹ | Vd ([3]; male, read-out: V1 Central volume of distribution): 0.0175 L | k el ([3]; male, read-out: kel Systemic elimination rate constant (converted)): 0.001 s⁻¹
Compound: Cc1nccn1CC1CCc2c(c3ccccc3n2C)C1=O (stereo not shown) [Ondansetron, Ondansetron hydrochloride]
KP_KO ([4]; Brain, female Pgp knockout rats): 3.04 | KP_WT ([4]; Brain, female wild type rats): 0.71 | KP_KO ([4]; Brain, male Pgp knockout rats): 2.52 | KP_WT ([4]; Brain, male wild type rats): 0.46 | KP_KO ([4]; CSF, female Pgp knockout rats): 0.22 | KP_WT ([4]; CSF, female wild type rats): 0.11 | KP_KO ([4]; CSF, male Pgp knockout rats): 0.19 | KP_WT ([4]; CSF, male wild type rats): 0.06 | KP_KO ([4]; Spinal Cord, female Pgp knockout rats): 1.34 | KP_WT ([4]; Spinal Cord, female wild type rats): 0.47 | KP_KO ([4]; Spinal Cord, male Pgp knockout rats): 1.78 | KP_WT ([4]; Spinal Cord, male wild type rats): 0.39 | effect of intrathecal administration in a neuropathic animal model [5]: dose-dependent antinociceptive effect

Compound: COc1cc2c(cc1OC)CN(CCc1ccc(NC(=O)c3cc(OC)c(OC)cc3NC(=O)c3cnc4ccccc4c3)cc1)CC2 [Tariquidar]
half-life ([6]; female rats): 2.2 h | half-life ([6]; male rats): 3.1 h | Tariquidar detection in CSF samples ([6]; rats, limit of detection 50 ng/mL for CSF): could not be detected | inhibition of Pgp efflux of ondansetron in the brain and spinal cord (Pgp [7]): almost complete inhibition | toxicity in rats immediately after ondansetron injection ([8]; tariquidar 15 mg/kg 30 min before ondansetron 10 mg/kg): toxicity | toxicity in rats after ondansetron injection ([8]; tariquidar dose decreased to 7.5 mg/kg, ondansetron 10 mg/kg): eliminating this toxicity | inhibition of Pgp (Pgp [9]): complete inhibition | Kd (Pgp [10]): 5.1 nM | inhibitory activity (IC50) (Pgp [11]): nM-range
